This note sets out measurements from patent US20250025452A1 (Clearside Biomedical, Inc., priority 2023, published 2025).

The structures appear in SMILES notation.

The nature of the series: Solubility (product profile). It is filed as physicochemical. To be noted: API. The text has this: Further information providing the solubility, particle size, viscosity, and other product profile parameters of exemplary CLS-AX compositions (active pharmaceutical ingredient (API); and drug product) are provided in Table 1C.

As to `CNC(=O)c1ccccc1Sc1ccc2c(/C=C/c3ccccn3)n[nH]c2c1` [Axitinib], the “Solubility (solvent)” value was “DMSO”.
